Laboratory results: patent EP0492113A2, “Herbicide resistant AHAS deletion mutants” (priority 1990, dated 1992)
Several values for one entry are separate records, joined by “and”; a condition that tells them apart may be missing. Equal entries are not always repeated.

Legend:
10-1 x 0 = assay: Tobacco seed assay on herbicide medium, 10-1 x 0; format: in vivo; conditions: 5 µM in medium; twenty seeds per dish; after three weeks
Description: (§1) Seeds resulting from transgenic plant 10-1 are also assayed for resistance to the imidazolinone Pursuit®. Seeds are plated onto medium containing Pursuit® at 0, 1.25, 2.5, 3.75, and 5.0 µM. Twenty seeds are plated per petri dish, with two dishes per treatment. Herbicide tolerance of seedlings is evaluated after three weeks. […]

W38 (wild-type) = assay: Tobacco seed assay on herbicide medium, W38; format: in vivo; conditions: after three weeks
Description: as §1

[1] = biological target: T1, Wild type Arabidopsis AHAS (Arabidopsis thaliana, UniProt P17597); assay: AHAS enzyme assay (expression in E. coli MF2000), wild type enzyme; format: biochemical; conditions: wild type (pAC201); Figures 4 and 5
T1 construct: made in house; host or cells: E. coli MF2000 (no endogenous AHAS), vector pKK233-2; ammonium sulfate fraction of the extract
T1 sequence (P17597 56-670): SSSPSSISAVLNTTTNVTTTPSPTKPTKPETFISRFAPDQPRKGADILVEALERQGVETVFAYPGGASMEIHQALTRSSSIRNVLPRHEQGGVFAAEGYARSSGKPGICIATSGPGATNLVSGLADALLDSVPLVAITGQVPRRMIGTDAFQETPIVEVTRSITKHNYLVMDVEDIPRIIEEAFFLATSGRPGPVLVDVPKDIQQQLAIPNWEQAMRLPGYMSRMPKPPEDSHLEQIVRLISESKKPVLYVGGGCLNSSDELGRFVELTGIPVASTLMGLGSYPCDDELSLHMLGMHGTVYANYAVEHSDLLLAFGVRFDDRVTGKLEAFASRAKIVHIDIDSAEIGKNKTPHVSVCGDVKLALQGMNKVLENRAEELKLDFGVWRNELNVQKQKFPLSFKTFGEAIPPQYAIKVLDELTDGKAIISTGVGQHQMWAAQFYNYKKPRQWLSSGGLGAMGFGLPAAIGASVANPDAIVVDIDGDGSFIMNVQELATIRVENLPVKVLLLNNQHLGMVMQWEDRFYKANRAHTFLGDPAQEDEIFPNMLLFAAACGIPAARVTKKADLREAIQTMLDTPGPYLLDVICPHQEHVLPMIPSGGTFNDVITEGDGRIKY
Description: AHAS enzyme assay (expression in E. coli) - The site directed mutants, pAC224 and pAC225, are utilized as templates for the generation of an E. coli based expression system. The insensitivity to herbicide is tested when the higher plant gene of interest is expressed in a bacterial strain devoid of any endogenous AHAS activity. To this end, the Nco1/Pst1 fragment of wild type Arabidopsis AHAS (pAC301), the Trp574-Leu substitution (pAC224) and the Trp574 deletion (pAC225) are subcloned into the Nco1/Pst1 site of the E. coli expression vector, pKK233-2 (purchased from Pharmacia). This expression plasmid contains an IPTG inducible promoter as well as a transcription termination sequence. Both regions surround an Nco1, HindIII and Pstl linker sequence that allows proper orientation of the gene of interest in relation to the bacterial promoter. Subcloning and ligation of the respective Ncol/Pstl fragments into Ncol/Pstl digested pKK233-2 DNA (ampicillin resistance) is as previously described. […] This bacterial strain is devoid of endogenous AHAS activity. Therefore, growth on a minimal media lacking isoleucine and valine (the end products of amino acid biosynthetic pathway of which the AHAS enzyme is involved) in an MF2000 strain transformed with either pAC224 (Trp574-Leu) or pAC225 (Trp del) requires the expression and function of the Arabidopsis gene in E. coli. […]

[2] = biological target: T2, Trp574-->Leu substitution mutant allele of the Arabidopsis AHAS (Arabidopsis thaliana, UniProt P17597, W574L); assay: AHAS enzyme assay (leaf tissue) of tobacco transformants 33-1 and 46-2; format: biochemical; conditions: leaf extracts of kanamycin resistant transformants 33-1 and 46-2
T2 construct: expressed in transfected cells; host or cells: leaf tissue of transgenic tobacco (Wisconsin 38 background), Agrobacterium LBA4404 / pBIN19 with the 5.5 kb XbaI genomic fragment
Description: (§2) AHAS enzyme assay (leaf tissue) - Shortly after transfer to the greenhouse, extracts each of the kanamycin resistant transformants are prepared and assayed for insensitivity to the imidazolinone Pursuit® herbicide. Acetohydroxyacid synthase is extracted and assayed as described in the previous section. […] This Trp574 deletion transformant is selfed and backcrossed to Wisconsin 38.
(§3) The extraction and assay for Arabidopsis AHAS in bacterial cells is essentially as described by Singh, et. al. (J. Chromatography 444: 251-261, 1988). The bacterial pellet is powered in liquid nitrogen and homogenized in 100mM potassium phosphate buffer (pH 7.5) containing 10mM pyruvate, 5mM magnesium chloride, 5mM Na₂-EDTA, 100um flavin adenine dinucleotide (FAD), 1mM valine, 1mM leucine, 10%(v/v) glycerol and 10mM cysteine. The homogenate is filtered through a nylon cloth (53uM mesh) and centrifuged at 25,000 x g for 20 minutes. The supernatant fraction is brought to 50% saturation with respect to ammonium sulfate and allowed to stand for 20-30 minutes on ice. […]
(§4) AHAS activity in the presence or absence of herbicide is measured by estimation of the product, acetolactate, after conversion by acid decarboxylation to acetoin. […] The acetoin formed is determined by incubating with creatine (0.17%) and 1-naphthol (1.7%) by the method of Westerfeld (J. Biol. Chem. 161: 495-502, 1945). […]

[3] = biological target: T3, mutant Arabidopsis AHAS allele having the Trp574 deletion (Arabidopsis thaliana, UniProt P17597, DEL574-574); assay: AHAS enzyme assay (leaf tissue) of tobacco deletion transformant 10-1; format: biochemical; conditions: leaf extract of kanamycin resistant deletion transformant 10-1
T3 construct: expressed in transfected cells; host or cells: leaf tissue of transgenic tobacco plant 10-1, Agrobacterium LBA4404 / pBIN19 with the 5.5 kb XbaI genomic fragment
Description: as §2, §3, §4

[4] = biological target: T4, Arabidopsis AHAS Trp574-Leu substitution (pAC224) (Arabidopsis thaliana, UniProt P17597, W574L); format: biochemical; conditions: increasing concentrations of herbicide, Figures 4 and 5
T4 construct: made in house; host or cells: E. coli MF2000, vector pKK233-2
Description: (§5) AHAS enzyme assay (expression in E. coli) - The site directed mutants, pAC224 and pAC225, are utilized as templates for the generation of an E. coli based expression system. The insensitivity to herbicide is tested when the higher plant gene of interest is expressed in a bacterial strain devoid of any endogenous AHAS activity. To this end, the Nco1/Pst1 fragment of wild type Arabidopsis AHAS (pAC301), the Trp574-Leu substitution (pAC224) and the Trp574 deletion (pAC225) are subcloned into the Nco1/Pst1 site of the E. coli expression vector, pKK233-2 (purchased from Pharmacia). This expression plasmid contains an IPTG inducible promoter as well as a transcription termination sequence. Both regions surround an Nco1, HindIII and Pstl linker sequence that allows proper orientation of the gene of interest in relation to the bacterial promoter. Subcloning and ligation of the respective Ncol/Pstl fragments into Ncol/Pstl digested pKK233-2 DNA (ampicillin resistance) is as previously described. The ligation reaction is transformed into the E. coli strain, MF2000 [ilvB800:mu-1, Bg132, ilvI15, thi-1, argE3, RPSL31, (ara-leu, iIvHI) 863, mtl-1, xyl-5 galK2, lacYI, recAl]. This bacterial strain is devoid of endogenous AHAS activity. […]

[5] = biological target: T5, Arabidopsis AHAS Trp574 deletion (pAC225) (Arabidopsis thaliana, UniProt P17597, DEL574-574); format: biochemical; conditions: increasing concentrations of herbicide, Figures 4 and 5
T5 construct: made in house; host or cells: E. coli MF2000, vector pKK233-2
Description: as §5

[6] = test system: Wisconsin 38[W38] wild-type herbicide sensitive tobacco cultivar; assay: Postemergence spray of tobacco, susceptible control; format: in vivo; conditions: for plant growth: 25 days after spraying, Figure 2(a); for Tobacco Mean FW: (5 reps each): Control, four and one-half weeks
Source text: (§6) All three photographs were taken 25 days after spraying. In all photographs, control plants (a wild-type herbicide sensitive tobacco cultivar, Wisconsin 38[W38]) are in the front row. • (a) W38 Control and 10-1 Self - W38 represents the control and 10-1 the selfed transgenic tobacco progeny. At 0 g/ha Pursuit®, both the W38 and the 10-1 look similar. […] 0 x 10-1 represents W38 as the maternal parent (0) and 10-1 as the paternal parent. The results are very similar to that seen in the 10-1 selfed photograph. • (c) W38 Control and 10-1 x 0 - W38 as previously described. 10-1 x 0 represents 10-1 as the maternal parent and W38 as the paternal parent (0). The results are very similar to that seen in the 10-1 selfed photograph except that in this photo segregation of the herbicide resistance trait can be seen in the 10-1 progeny.
(§7) In a more quantitative assay, seed of selfed progeny of the transgenic tobacco plant (10-1) containing the Trp574 deletion mutation of Arabidopsis AHAS as well as seeds of the susceptible parental cultivar "Wisconsin 38" are planted in Metro Mix 350™ in 5" Azalea pots. The seedlings are thinned to the single most vigorous seedling after 2 days. Eleven days later, these plants are sprayed postemergence with Pursuit® at 0, 10, 20, 40, 80 and 160 g/ha. Five plants of each tobacco type (transgenic and control) are sprayed per herbicide rate. Tween 20™ is added at 0.25 v/v to the herbicide solutions prior to spraying. The herbicide is applied with a laboratory belt sprayer at a rate of 400 L/ha at a distance 18" above the plants with a belt speed of 8.2 sec/rev and sprayer nozzle #65015E. Plant heights are measured 1, 2, 3, and 4 weeks after treatment, plant fresh weight data is collected at four and one-half weeks.

0 x 10-1 = assay: Tobacco seed assay on herbicide medium, 0 x 10-1; format: in vivo; conditions: 5 µM in medium; twenty seeds per dish; after three weeks
Description: as §1

10-1 Selfed = assay: Tobacco seed assay on herbicide medium, 10-1 selfed; format: in vivo; conditions: 5 µM in medium; twenty seeds per dish; after three weeks
Description: as §1

[7] = test system: selfed progeny of the transgenic tobacco plant (10-1) containing the Trp574 deletion mutation of Arabidopsis AHAS; assay: Postemergence spray of tobacco, selfed progeny of transgenic plant 10-1; format: in vivo; conditions: for plant growth: 25 days after spraying, Figure 2(a); for Tobacco Mean FW: (5 reps each): Transgenic Progeny, four and one-half weeks
Source text: as §6, §7

[8] = biological target: T6, AHAS produced by substitution of asparagine for serine at position 653 (pAC229) (Arabidopsis thaliana, UniProt P17597, S653N); format: biochemical; conditions: Ser653 to asparagine substitution; Figure 6
T6 construct: made in house; host or cells: E. coli MF2000

[9] = biological target: T7, AHAS produced by the Ser653 deletion (pAC230) (Arabidopsis thaliana, UniProt P17597, DEL653-653); format: biochemical; conditions: Figures 6 and 7
T7 construct: made in house; host or cells: E. coli MF2000

[10] = 5 µM in medium, twenty seeds per dish

T7 sequence (P17597 other isoform, or with tags, fused parts or gaps DEL653-653): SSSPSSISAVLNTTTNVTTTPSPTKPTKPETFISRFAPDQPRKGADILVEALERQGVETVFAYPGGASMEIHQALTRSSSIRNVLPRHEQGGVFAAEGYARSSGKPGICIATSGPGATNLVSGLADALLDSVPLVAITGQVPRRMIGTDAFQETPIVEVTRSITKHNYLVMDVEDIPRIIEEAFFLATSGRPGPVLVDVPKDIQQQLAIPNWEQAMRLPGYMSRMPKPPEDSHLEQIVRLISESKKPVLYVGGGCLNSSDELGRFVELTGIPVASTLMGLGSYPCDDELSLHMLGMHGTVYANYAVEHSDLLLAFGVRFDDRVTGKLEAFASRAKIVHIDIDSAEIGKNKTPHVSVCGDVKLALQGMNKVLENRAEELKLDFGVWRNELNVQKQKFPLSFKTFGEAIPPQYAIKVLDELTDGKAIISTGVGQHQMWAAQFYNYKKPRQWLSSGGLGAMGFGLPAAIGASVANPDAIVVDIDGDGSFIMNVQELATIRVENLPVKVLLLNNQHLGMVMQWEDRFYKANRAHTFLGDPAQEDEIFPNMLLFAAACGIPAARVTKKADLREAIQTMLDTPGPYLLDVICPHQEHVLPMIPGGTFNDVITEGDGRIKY
T2 sequence (P17597 56-670 W574L): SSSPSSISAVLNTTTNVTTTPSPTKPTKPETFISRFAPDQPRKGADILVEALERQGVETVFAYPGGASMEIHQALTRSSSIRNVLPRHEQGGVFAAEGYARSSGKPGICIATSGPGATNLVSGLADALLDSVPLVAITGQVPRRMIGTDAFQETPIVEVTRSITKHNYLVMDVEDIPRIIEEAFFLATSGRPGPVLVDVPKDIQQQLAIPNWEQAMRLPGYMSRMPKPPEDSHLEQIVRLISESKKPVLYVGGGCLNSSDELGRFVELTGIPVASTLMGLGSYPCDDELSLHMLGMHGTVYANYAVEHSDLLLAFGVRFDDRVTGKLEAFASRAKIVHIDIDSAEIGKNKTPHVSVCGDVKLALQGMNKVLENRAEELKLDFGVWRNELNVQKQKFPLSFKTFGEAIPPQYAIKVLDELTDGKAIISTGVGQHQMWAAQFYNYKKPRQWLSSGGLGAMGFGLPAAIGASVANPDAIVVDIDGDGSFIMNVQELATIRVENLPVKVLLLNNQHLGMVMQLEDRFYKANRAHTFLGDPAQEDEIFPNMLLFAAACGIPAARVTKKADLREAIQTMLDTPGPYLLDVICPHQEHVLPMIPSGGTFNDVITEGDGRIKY
T4 sequence (P17597 56-670 W574L): as above
T3 sequence (P17597 other isoform, or with tags, fused parts or gaps DEL574-574): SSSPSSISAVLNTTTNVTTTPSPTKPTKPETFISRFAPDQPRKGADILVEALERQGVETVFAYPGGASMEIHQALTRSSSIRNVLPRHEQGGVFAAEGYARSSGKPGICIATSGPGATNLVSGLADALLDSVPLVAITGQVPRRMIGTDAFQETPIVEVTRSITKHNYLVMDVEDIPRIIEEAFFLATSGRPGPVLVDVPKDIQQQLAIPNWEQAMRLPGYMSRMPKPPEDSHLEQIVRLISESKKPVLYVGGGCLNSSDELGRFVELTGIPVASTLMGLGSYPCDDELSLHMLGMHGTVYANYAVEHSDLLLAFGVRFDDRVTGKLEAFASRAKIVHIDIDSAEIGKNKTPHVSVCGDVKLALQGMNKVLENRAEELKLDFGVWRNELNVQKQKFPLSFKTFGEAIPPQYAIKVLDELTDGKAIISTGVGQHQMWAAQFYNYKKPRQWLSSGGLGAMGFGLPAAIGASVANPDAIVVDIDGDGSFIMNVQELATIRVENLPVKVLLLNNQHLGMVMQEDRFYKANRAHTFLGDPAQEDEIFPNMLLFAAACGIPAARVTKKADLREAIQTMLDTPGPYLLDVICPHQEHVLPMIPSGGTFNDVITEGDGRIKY
T5 sequence (P17597 other isoform, or with tags, fused parts or gaps DEL574-574): as above
T6 sequence (P17597 56-670 S653N): as the sequence (P17597 56-670 W574L) above, with L519W, S598N counted along it

CCc1cnc(C2=NC(C)(C(C)C)C(=O)N2)c(C(=O)O)c1 (stereo not drawn) [Pursuit®]
D (Damaged), number of seedlings per dish (10-1 x 0): 9 | R (Resistant), number of seedlings per dish (10-1 x 0): 0 | S (Susceptible), number of seedlings per dish (10-1 x 0): 11 | D (Damaged), number of seedlings per dish (W38 (wild-type); [10]): 0 | R (Resistant), number of seedlings per dish (W38 (wild-type); [10]): 0 | S (Susceptible), number of seedlings per dish (W38 (wild-type); [10]): 20 | herbicide tolerance of seedlings (W38 (wild-type); control plants, lowest concentration, 1.25 µM in medium): exhibited herbicide sensitivity | sensitivity of AHAS enzyme to herbicide [1]: sensitive | AHAS activity in the presence of herbicide [2]: exhibit AHAS activity | AHAS activity on addition of herbicide [3]: exhibits insensitivity | sensitivity of AHAS enzyme to herbicide [4]: insensitive | sensitivity of AHAS enzyme to herbicide [5]: insensitive | plant growth ([6]; 10 g/ha post-emergence, compared to 10-1): slightly inhibited | Tobacco Mean FW: (5 reps each) ([6]; 10 g/ha postemergence): 8.1 g | Tobacco Mean FW: (5 reps each) ([6]; 20 g/ha postemergence): 2.0 g | Tobacco Mean FW: (5 reps each) ([6]; 40 g/ha postemergence): 0.8 g | Tobacco Mean FW: (5 reps each) ([6]; 80 g/ha postemergence): 0.6 g | Tobacco Mean FW: (5 reps each) ([6]; 160 g/ha postemergence): 0.2 g | herbicide tolerance, applied postemergence ([6]; any of the rates tested (10 to 160 g/ha)): does not display herbicide tolerance | plant growth ([6]; starting at 20 g/ha post-emergence): almost completely inhibited | D (Damaged), number of seedlings per dish (0 x 10-1): 9 and 8 | R (Resistant), number of seedlings per dish (0 x 10-1): 0 | S (Susceptible), number of seedlings per dish (0 x 10-1): 10 and 8 | D (Damaged), number of seedlings per dish (10-1 Selfed): 6 and 11 | R (Resistant), number of seedlings per dish (10-1 Selfed): 6 | plant growth ([7]; 80 g/ha post-emergence): slightly inhibited | plant growth ([7]; 160 g/ha post-emergence): clearly inhibited | Tobacco Mean FW: (5 reps each) ([7]; 10 g/ha postemergence): 36.4 g | Tobacco Mean FW: (5 reps each) ([7]; 20 g/ha postemergence): 28.8 g | Tobacco Mean FW: (5 reps each) ([7]; 40 g/ha postemergence): 20.9 g | Tobacco Mean FW: (5 reps each) ([7]; 80 g/ha postemergence): 26.5 g | Tobacco Mean FW: (5 reps each) ([7]; 160 g/ha postemergence): 21.4 g | tolerance to post-emergence applications, relative to the concentration lethal to control tobacco plants ([7]; progeny from 10-1): 4-8 x | herbicide tolerance, applied postemergence ([7]; rates 10 to 160 g/ha): high degree of tolerance | sensitivity of AHAS enzyme to herbicide [8]: insensitive to inhibition | sensitivity of AHAS enzyme to herbicide [9]: highly resistant to inhibition
